Source: patent US8143307B2, “Benzothiophen-2-carbonylguanidine derivatives, preparation thereof, and pharmaceutical composition containing the same” (Korea Research Institute of Chemical Technology, priority 2004, dated 2012)
pIC50: −log10 of the molar value.

Experiments:
[1] = molecular target: T1, Human NHE-1 (Homo sapiens, UniProt P19634); test: Inhibitory effect on NHE-1 in PS120/NHE-1 cells (recovery from intracellular acidosis, BCECF fluorescence); format: cell-based; conditions: human NHE-1 expressed PS120 cells; concentration at which recovery from intracellular acidosis was 50% inhibited
T1 construct: expressed in transfected cells; host or cells: CCL39-derived PS120 cells (PS120/NHE-1)

[2] = tested on: isolated ischemic rat heart; test: Cardioprotective effect in isolated ischemic rat heart model (Langendorff); conditions: 10 μM, 30 min global ischemia, 30 min reperfusion
Procedure: Male rats (300 450 g, the Korea Research Institute of Chemical Technology, Experimental Animal Lab) were anesthetized by intraperitoneal injection with sodium pentobarbital at a dose of 100 mg/kg and were intravenously administered with heparine at a dose of 1000 U/kg, followed by the excision of the heart. In detail, a tracheotomy was performed and a tracheal cannula (PE 240) was inserted into the trachea for subsequent artificial ventilation with room air using a rodent ventilator. […] A catheter tip manometer connected to a latex balloon filled with a mixture of ethanol and distilled water (1:1 v/v) was inserted via an incision in the left atrium into the left ventricle, and the intraventricular pressure thereof transmitted to the latex balloon was measured isovolumetrically with a transducer and recorded on a recording system (Linearcorder mark 8 WR 3500) with the aid of an amplifier (Plugsys bridge amplifier). After stabilizing the heart for 15 min, the balloon volume was adjusted to create a left ventricular end-diastolic pressure (LVEDP) of 5 mmHg during the initial baseline period. The volume of the balloon was maintained until the end of the experiment. Baseline heart contraction function, spontaneous heart rate (HR) and coronary flow (CF) were determined from the left ventricular contraction interval. The left ventricular developed pressure (LVDP), which is regarded as an index of contractile function of the isolated heart, was calculated by subtracting left ventricular end-diastolic pressure (LVEDP) from left ventricular peak systolic pressure (LVSP). In contrast to the heart in the body, the Langendorff heart cannot be measured for cardiac output and thus, RPP (rate-pressure product), which is an important indirect indicator for cardiac performance, was calculated by multiplying heart rate (HR) by LVDP. Throughout the experiment, the temperature of the heart was maintained constant by […] in a 37° C. physiological solution to which 95% O2/5% CO2 was continuously supplied. The heart thus stabilized was perfursed for 10 min with a solution of the compounds of the invention or control drugs in DMSO (dimethylsulfoxide) diluted with HBS (final DMSO conc. 0.04%), or with the solvent only (a negative control; 0.04% DMSO) and then measured again for contractile function, heart rate (HR) and coronary flow (CF). The supply of perfusates was completely stopped for 30 min in order to induce global ischemia in the heart, followed by reperfusion for 30 min. The indices (LVDP, HR, LVEDP, and CF) were measured again. After the reperfusion, the total level of lactate dehydrogenase (LDH) in the reperfusates was measured using a kit and taken as an index of ischemic myocardial injury. A negative control group was treated with the solvent only while cariporide was used as a positive control.

[3] = tested on: in vivo ischemic rat brain model; test: Cerebroprotective effect on in vivo ischemic rat brain model; conditions: for % Infarct size/hemisphere / TUNEL-Positive Cells (% Right/Left Hemisphere): 60 min ischemia, 24 hours reperfusion
Procedure: In order to examine whether the benzothiophen-2-carbonylguanidine derivatives of the present invention protect the brain from ischemia-reperfusion-induced cerebral injury, the following experiment was conducted.
Male Sparague-Dawley Rats (350±50 g, Samyook Experimental Animal Lab) were anesthetized and intraperitoneally injected with heparine. After ischemia by the occlusion of the right carotid artery for 60 min, reperfusion was performed for 24 hours. Compounds or a vehicle was intravenously injected at 20 min before the occlusion.
After the perfusion for 24 hours, rats were anesthetized with a fatal dose of sodium pentobarbital. The brains were carefully isolated and transected at intervals of 2 mm. The coronary slices thus obtained were stained at 37° C. for 20 min using a 2% 2,3,5-triphenyltetrazolium chloride solution. Stained slices were analyzed for % necrosis area relative to total brain area using an image analyzer (BAS image 1500). Also, the cerebroprotective activity of the compounds against brain edema was expressed as % volume of the left hemisphere relative to that of the ischemic right hemisphere.

[4] = 0.1 mg/kg intravenous 20 min before occlusion
[5] = 0.3 mg/kg intravenous 20 min before occlusion

T1 sequence (P19634 whole entry): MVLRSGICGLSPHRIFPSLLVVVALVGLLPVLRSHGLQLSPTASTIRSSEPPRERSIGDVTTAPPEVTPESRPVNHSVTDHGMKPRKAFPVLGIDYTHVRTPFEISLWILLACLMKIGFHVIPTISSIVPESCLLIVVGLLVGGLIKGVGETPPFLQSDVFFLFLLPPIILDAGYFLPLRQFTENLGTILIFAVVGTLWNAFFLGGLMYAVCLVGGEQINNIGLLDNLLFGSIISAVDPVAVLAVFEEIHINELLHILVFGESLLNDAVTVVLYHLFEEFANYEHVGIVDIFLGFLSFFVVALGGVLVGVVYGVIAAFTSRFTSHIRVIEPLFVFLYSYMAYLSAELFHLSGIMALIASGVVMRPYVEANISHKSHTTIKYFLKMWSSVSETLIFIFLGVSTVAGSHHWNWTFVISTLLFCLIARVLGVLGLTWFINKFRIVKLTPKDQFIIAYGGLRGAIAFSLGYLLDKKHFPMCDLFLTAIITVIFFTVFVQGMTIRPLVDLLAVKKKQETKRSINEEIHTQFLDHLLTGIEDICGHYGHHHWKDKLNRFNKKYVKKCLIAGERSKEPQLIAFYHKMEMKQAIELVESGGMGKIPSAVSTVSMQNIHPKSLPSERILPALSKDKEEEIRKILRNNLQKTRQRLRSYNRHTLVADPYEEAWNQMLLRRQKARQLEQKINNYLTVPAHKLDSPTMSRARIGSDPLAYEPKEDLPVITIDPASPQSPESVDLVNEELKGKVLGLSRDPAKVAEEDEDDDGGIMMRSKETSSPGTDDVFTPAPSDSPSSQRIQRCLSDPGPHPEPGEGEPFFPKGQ

Question: With CS(=O)(=O)O.N#Cc1cccc2sc(C(=O)N=C(N)N)cc12 [Example 42, (4-Cyanobenzothiophene-2-Carbonyl)Guanidine Methanesulfonate] as the molecule, how does the pIC50 [1] read?
Answer: 5.69

Question: What about the “LDH (free LDH level upon reperfusion)” value [2] of the same molecule?
Answer: 14.7 u/g

Question: What about the “LVEDP (left ventricular end-diastolic pressure)” value [2] of the same molecule?
Answer: 6.0 mmHg

Question: And the “% Infarct size/hemisphere” value [3, 4]?
Answer: 21.4%

Question: What about the “TUNEL-Positive Cells (% Right/Left Hemisphere)” value [3, 4] of the same molecule?
Answer: 111.2%

Question: And the “% Infarct size/hemisphere” value [3, 5]?
Answer: 18.6%

Question: What about the “TUNEL-Positive Cells (% Right/Left Hemisphere)” value [3, 5] of the same molecule?
Answer: 107.96%

Question: And the “ischemia/reperfusion-induced brain infarction and brain edema” value ([3]; injection doses of both 0.1 mg/kg and 0.3 mg/kg)?
Answer: significantly reduced
